Read-outs that look alike come from different tables or passages of the source.
Tested on: HIV
Conditions: for HIV p24 protein in culture supernatants: CEM cells
Procedure: This example describes one method of inactivation of the purified virus according to the invention by crosslinking of surface proteins. […] Titrations of the fixative were preformed above and below the concentration recommended by the CDC for inactivation of virus in biological fluids (May 8, 1992/41 (RR-8); 001 CDC Guidelines for the Performance of CD4+ T-Cell Determinations in Persons with Human Immunodeficiency Virus Infection). Initially, purified virus was slowly thawed at 2-8° C. for 6-8 hours to minimize lysis of the virus. Next, while on ice, virus was diluted with cold PBS to a final concentration of approximately 1×10^10 copies/mL (cp/mL). […] The reaction mixtures were then incubated at 2-8° C. for 60 minutes while gently rocking. […] After the addition of glycine the reactions were gently rocked for 2 hr. at 2-8° C. To remove glycine and any excess unquenched fixative each reaction mixture was then dialyzed (10-14K m.w. cutoff) against 1 L PBS (pH 7.4, 2-8° C.) for 4 changes. Dialyzed virus was then transferred into a 15 mL tube and centrifuged for 10 min. at 3,000×g to pellet any precipitated virus. A sample of each supernatant was then tested in cell culture for the presence of infectious virus.
The modified virus produced as described in Example 2 was tested to ensure the process inactivated the virus. As an illustration, the CEM cell line, obtained from the American Type Culture Collection was used as a host cell for viral infectivity studies. Advantages of using this line are that establishment of in vitro HIV infection requires relatively few virions and that the infection is chronic rather than lytic, facilitating analysis. For these studies, infection is detected and followed using the ZeptoMetrix HIV p24 Antigen EIA (ZeptoMetrix, Buffalo N.Y.).
CEM cells are cultured in RPMI-1640 containing 10% FBS in 24 well plates Cells are plated at 10^5 cells per well in a 1 ml volume and 100 ul of various dilutions of virus, either treated or untreated, are added to individual wells. Cultures are fed twice weekly by 50% media replacement and culture supernatants are assayed for HIV p24. All cultures initially contain HIV p24. However, in cultures where virus is noninfectious HIV p24 levels decrease over time eventually reaching background levels.
Different dilutions (1:8,000, 1:80,000, and 1:800,000) of treated virus were then placed into cultures of CEM cells and p24 assays were performed on culture supernatants on days 3, 7, 10, and 14 post-inoculation. Data are expressed as pg/ml of HIV p24 protein in the culture supernatants. The standard curve for the p24 assay is linear from 7.8 pg/ml to 125 pg/ml. HIV p24 concentrations below 7.8 pg/ml are expressed as “<7.8 pg/ml” to indicate sensitivity of the assay, and values above 125 pg/ml are expressed as “>125 pg/ml” since the assay is nonlinear above 125 pg/ml.

## paraformaldehyde
5.0% paraformaldehyde 60 min, treated HIV diluted 1:800,000, 10 days post-inoculation
  HIV p24 protein in culture supernatants: <7.8 pg/mL
5.0% paraformaldehyde 60 min, treated HIV diluted 1:800,000, 14 days post-inoculation
  HIV p24 protein in culture supernatants: <7.8 pg/mL
Exposure time 15 minutes, treated HIV diluted 1:8,000, 3 days post-inoculation
  HIV p24 protein in culture supernatants: >125 pg/mL
Exposure time 15 minutes, treated HIV diluted 1:8,000, 7 days post-inoculation
  HIV p24 protein in culture supernatants: >125 pg/mL
Exposure time 15 minutes, treated HIV diluted 1:8,000, 10 days post-inoculation
  HIV p24 protein in culture supernatants: 43.9 pg/mL
Exposure time 15 minutes, treated HIV diluted 1:8,000, 14 days post-inoculation
  HIV p24 protein in culture supernatants: <7.8 pg/mL
Exposure time 15 minutes, treated HIV diluted 1:80,000, 3 days post-inoculation
  HIV p24 protein in culture supernatants: 27.9 pg/mL
Exposure time 15 minutes, treated HIV diluted 1:80,000, 7 days post-inoculation
  HIV p24 protein in culture supernatants: 18.0 pg/mL
Exposure time 15 minutes, treated HIV diluted 1:80,000, 10 days post-inoculation
  HIV p24 protein in culture supernatants: <7.8 pg/mL
Exposure time 15 minutes, treated HIV diluted 1:80,000, 14 days post-inoculation
  HIV p24 protein in culture supernatants: <7.8 pg/mL
Exposure time 15 minutes, treated HIV diluted 1:800,000, 3 days post-inoculation
  HIV p24 protein in culture supernatants: <7.8 pg/mL
Exposure time 15 minutes, treated HIV diluted 1:800,000, 7 days post-inoculation
  HIV p24 protein in culture supernatants: <7.8 pg/mL
Exposure time 15 minutes, treated HIV diluted 1:800,000, 10 days post-inoculation
  HIV p24 protein in culture supernatants: <7.8 pg/mL
Exposure time 15 minutes, treated HIV diluted 1:800,000, 14 days post-inoculation
  HIV p24 protein in culture supernatants: <7.8 pg/mL
Exposure time 30 minutes, treated HIV diluted 1:8,000, 3 days post-inoculation
  HIV p24 protein in culture supernatants: >125 pg/mL
Exposure time 30 minutes, treated HIV diluted 1:8,000, 7 days post-inoculation
  HIV p24 protein in culture supernatants: >125 pg/mL
Exposure time 30 minutes, treated HIV diluted 1:8,000, 10 days post-inoculation
  HIV p24 protein in culture supernatants: 46.2 pg/mL
Exposure time 30 minutes, treated HIV diluted 1:8,000, 14 days post-inoculation
  HIV p24 protein in culture supernatants: <7.8 pg/mL
Exposure time 30 minutes, treated HIV diluted 1:80,000, 3 days post-inoculation
  HIV p24 protein in culture supernatants: 22.6 pg/mL
Exposure time 30 minutes, treated HIV diluted 1:80,000, 7 days post-inoculation
  HIV p24 protein in culture supernatants: 10.3 pg/mL
Exposure time 30 minutes, treated HIV diluted 1:80,000, 10 days post-inoculation
  HIV p24 protein in culture supernatants: <7.8 pg/mL
Exposure time 30 minutes, treated HIV diluted 1:80,000, 14 days post-inoculation
  HIV p24 protein in culture supernatants: <7.8 pg/mL
Exposure time 30 minutes, treated HIV diluted 1:800,000, 3 days post-inoculation
  HIV p24 protein in culture supernatants: <7.8 pg/mL
Exposure time 30 minutes, treated HIV diluted 1:800,000, 7 days post-inoculation
  HIV p24 protein in culture supernatants: <7.8 pg/mL
Exposure time 30 minutes, treated HIV diluted 1:800,000, 10 days post-inoculation
  HIV p24 protein in culture supernatants: <7.8 pg/mL
Exposure time 30 minutes, treated HIV diluted 1:800,000, 14 days post-inoculation
  HIV p24 protein in culture supernatants: <7.8 pg/mL
Exposure time 60 minutes, treated HIV diluted 1:8,000, 3 days post-inoculation
  HIV p24 protein in culture supernatants: >125 pg/mL
Exposure time 60 minutes, treated HIV diluted 1:8,000, 7 days post-inoculation
  HIV p24 protein in culture supernatants: >125 pg/mL
Exposure time 60 minutes, treated HIV diluted 1:8,000, 10 days post-inoculation
  HIV p24 protein in culture supernatants: 87.4 pg/mL
Exposure time 60 minutes, treated HIV diluted 1:8,000, 14 days post-inoculation
  HIV p24 protein in culture supernatants: <7.8 pg/mL
Exposure time 60 minutes, treated HIV diluted 1:80,000, 3 days post-inoculation
  HIV p24 protein in culture supernatants: 59.8 pg/mL
Exposure time 60 minutes, treated HIV diluted 1:80,000, 7 days post-inoculation
  HIV p24 protein in culture supernatants: 36.0 pg/mL
Exposure time 60 minutes, treated HIV diluted 1:80,000, 10 days post-inoculation
  HIV p24 protein in culture supernatants: <7.8 pg/mL
Exposure time 60 minutes, treated HIV diluted 1:80,000, 14 days post-inoculation
  HIV p24 protein in culture supernatants: <7.8 pg/mL
Exposure time 60 minutes, treated HIV diluted 1:800,000, 3 days post-inoculation
  HIV p24 protein in culture supernatants: <7.8 pg/mL
Exposure time 60 minutes, treated HIV diluted 1:800,000, 7 days post-inoculation
  HIV p24 protein in culture supernatants: <7.8 pg/mL
Exposure time 60 minutes, treated HIV diluted 1:800,000, 10 days post-inoculation
  HIV p24 protein in culture supernatants: <7.8 pg/mL
Exposure time 60 minutes, treated HIV diluted 1:800,000, 14 days post-inoculation
  HIV p24 protein in culture supernatants: <7.8 pg/mL
Exposure time Overnight, treated HIV diluted 1:8,000, 3 days post-inoculation
  HIV p24 protein in culture supernatants: >125 pg/mL
Exposure time Overnight, treated HIV diluted 1:8,000, 7 days post-inoculation
  HIV p24 protein in culture supernatants: >125 pg/mL
Exposure time Overnight, treated HIV diluted 1:8,000, 10 days post-inoculation
  HIV p24 protein in culture supernatants: 27.6 pg/mL
Exposure time Overnight, treated HIV diluted 1:8,000, 14 days post-inoculation
  HIV p24 protein in culture supernatants: <7.8 pg/mL
Exposure time Overnight, treated HIV diluted 1:80,000, 3 days post-inoculation
  HIV p24 protein in culture supernatants: 16.3 pg/mL
Exposure time Overnight, treated HIV diluted 1:80,000, 7 days post-inoculation
  HIV p24 protein in culture supernatants: 17.5 pg/mL
Exposure time Overnight, treated HIV diluted 1:80,000, 10 days post-inoculation
  HIV p24 protein in culture supernatants: <7.8 pg/mL
Exposure time Overnight, treated HIV diluted 1:80,000, 14 days post-inoculation
  HIV p24 protein in culture supernatants: <7.8 pg/mL
Exposure time Overnight, treated HIV diluted 1:800,000, 3 days post-inoculation
  HIV p24 protein in culture supernatants: <7.8 pg/mL
Exposure time Overnight, treated HIV diluted 1:800,000, 7 days post-inoculation
  HIV p24 protein in culture supernatants: <7.8 pg/mL
Exposure time Overnight, treated HIV diluted 1:800,000, 10 days post-inoculation
  HIV p24 protein in culture supernatants: <7.8 pg/mL
Exposure time Overnight, treated HIV diluted 1:800,000, 14 days post-inoculation
  HIV p24 protein in culture supernatants: <7.8 pg/mL
Treatment of virus with paraformaldehyde, by day 14
  amounts of p24 in the culture supernatants: non-detectable

Source: patent US9120849B2 (priority 2000, dated 2015)
